pKi: −log10 of the molar value. Blank lines part the entries; values can stand above or below the molecule they belong to.
Assays:
[1] = species: Homo sapiens; assay: Selectivity index, ratio of Ki for human recombinant 5-HT1A receptor to Ki for human recombinant 5-HT7 receptor
[2] = species: Homo sapiens; assay: Selectivity index, ratio of Ki for human recombinant 5-HT2A receptor to Ki for human recombinant 5-HT7 receptor
[3] = biological target: 5-hydroxytryptamine receptor 7 (Homo sapiens, UniProt P34969); assay: Displacement of [3H]LSD from human recombinant 5-HT7 receptor expressed in HEK cell membranes by radioligand binding assay; parameters: species or system HEK293
Sequence of 5-hydroxytryptamine receptor 7 (P34969 whole entry): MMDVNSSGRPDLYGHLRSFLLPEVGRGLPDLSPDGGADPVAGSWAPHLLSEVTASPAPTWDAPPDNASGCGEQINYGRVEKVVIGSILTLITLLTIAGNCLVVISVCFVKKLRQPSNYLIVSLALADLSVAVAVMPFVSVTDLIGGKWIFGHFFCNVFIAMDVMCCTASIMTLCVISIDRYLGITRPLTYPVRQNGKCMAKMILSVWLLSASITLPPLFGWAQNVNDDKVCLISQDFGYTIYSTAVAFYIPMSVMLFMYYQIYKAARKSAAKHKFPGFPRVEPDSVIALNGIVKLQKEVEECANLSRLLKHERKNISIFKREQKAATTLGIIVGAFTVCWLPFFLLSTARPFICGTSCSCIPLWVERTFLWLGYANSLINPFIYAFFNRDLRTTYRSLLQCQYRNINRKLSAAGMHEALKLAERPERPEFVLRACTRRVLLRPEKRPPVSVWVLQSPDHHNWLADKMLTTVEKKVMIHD

[4] = biological target: T1, 5-hydroxytryptamine receptor 1A (Homo sapiens, UniProt P08908); assay: Displacement of [3H]Way100635 from human recombinant 5-HT1A receptor expressed in CHO cell membranes by radioligand binding assay
T1 sequence (P08908 whole entry): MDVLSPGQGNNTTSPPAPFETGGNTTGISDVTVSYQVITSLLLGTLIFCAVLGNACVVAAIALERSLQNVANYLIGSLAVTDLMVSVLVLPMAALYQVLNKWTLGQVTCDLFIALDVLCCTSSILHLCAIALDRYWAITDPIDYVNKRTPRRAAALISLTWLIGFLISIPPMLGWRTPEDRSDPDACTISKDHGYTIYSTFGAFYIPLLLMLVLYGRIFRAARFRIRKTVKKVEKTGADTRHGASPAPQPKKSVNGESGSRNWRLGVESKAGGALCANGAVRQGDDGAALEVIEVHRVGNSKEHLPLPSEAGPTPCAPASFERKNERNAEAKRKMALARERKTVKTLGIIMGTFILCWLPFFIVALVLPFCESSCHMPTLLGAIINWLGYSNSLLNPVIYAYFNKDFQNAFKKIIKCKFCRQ

[5] = biological target: 5-hydroxytryptamine receptor 2A (Homo sapiens, UniProt P28223); assay: Displacement of [3H]ketanserin from human recombinant 5-HT2A receptor expressed in HEKT cell membranes by radioligand binding assay; format: cell-based
Sequence of 5-hydroxytryptamine receptor 2A (P28223 whole entry): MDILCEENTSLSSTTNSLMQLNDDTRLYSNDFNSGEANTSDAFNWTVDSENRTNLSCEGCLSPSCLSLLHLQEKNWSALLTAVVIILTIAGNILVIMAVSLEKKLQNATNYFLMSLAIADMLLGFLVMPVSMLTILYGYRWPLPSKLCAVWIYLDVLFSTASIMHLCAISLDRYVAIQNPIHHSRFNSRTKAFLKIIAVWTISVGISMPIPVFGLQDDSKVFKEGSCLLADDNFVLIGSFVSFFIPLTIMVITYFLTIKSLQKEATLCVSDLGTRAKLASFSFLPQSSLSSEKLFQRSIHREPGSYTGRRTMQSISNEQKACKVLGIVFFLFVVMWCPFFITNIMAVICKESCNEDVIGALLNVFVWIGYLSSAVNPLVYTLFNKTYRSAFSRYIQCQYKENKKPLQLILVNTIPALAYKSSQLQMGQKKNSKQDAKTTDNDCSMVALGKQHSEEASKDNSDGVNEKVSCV

[6] = biological target: T2, 5-hydroxytryptamine receptor 1A (Homo sapiens) (UniProt P08908); assay: Potency index, ratio of Ki for N-Methyllaurotetanine to Ki for test compound against human recombinant 5-HT1A receptor expressed in CHO cell membranes by radioligand binding assay
T2 sequence (whole entry): T1 sequence (P08908 whole entry)

[7] = biological target: Mu-type opioid receptor (Homo sapiens) (UniProt P35372); assay: Displacement of [3H]DAMGO from human recombinant MOR expressed in HEK cell membranes by radioligand binding assay; conditions: HEK293, concentration not given here
[8] = biological target: Translocator protein (Rattus norvegicus) (UniProt P16257); assay: Displacement of [3H]PK11195 from rat brain PBR by radioligand binding assay; conditions: concentration not given here
Sequence of Translocator protein (Rattus norvegicus) (P16257 whole entry, looked up): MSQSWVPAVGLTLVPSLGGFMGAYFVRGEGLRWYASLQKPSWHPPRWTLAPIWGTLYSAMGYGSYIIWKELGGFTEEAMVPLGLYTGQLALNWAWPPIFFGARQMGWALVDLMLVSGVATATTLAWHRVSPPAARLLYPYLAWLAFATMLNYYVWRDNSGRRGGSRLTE

[9] = biological target: Sigma non-opioid intracellular receptor 1 (Cavia porcellus) (UniProt Q60492); assay: Binding affinity to guinea pig sigma1 receptor by radioligand binding assay; conditions: concentration not given here
[10] = tested on: Sigma 2 receptor; assay: Displacement of [3H]DTG from human recombinant sigma2 receptor by radioligand binding assay; conditions: concentration not given here
[11] = biological target: 5-hydroxytryptamine receptor 2C (Homo sapiens, UniProt P28335); assay: Displacement of [3H]mesulergine from human recombinant 5-HT2C receptor expressed in Flp-IN HEK cell membranes by radioligand binding assay; parameters: species or system HEK293
[12] = biological target: Alpha-1B adrenergic receptor (Homo sapiens, UniProt P35368); assay: Displacement of [3H]prazosin from human recombinant adrenergic alpha1B receptor expressed in HEKT cell membranes by radioligand binding assay
Sequence of Alpha-1B adrenergic receptor (P35368 whole entry): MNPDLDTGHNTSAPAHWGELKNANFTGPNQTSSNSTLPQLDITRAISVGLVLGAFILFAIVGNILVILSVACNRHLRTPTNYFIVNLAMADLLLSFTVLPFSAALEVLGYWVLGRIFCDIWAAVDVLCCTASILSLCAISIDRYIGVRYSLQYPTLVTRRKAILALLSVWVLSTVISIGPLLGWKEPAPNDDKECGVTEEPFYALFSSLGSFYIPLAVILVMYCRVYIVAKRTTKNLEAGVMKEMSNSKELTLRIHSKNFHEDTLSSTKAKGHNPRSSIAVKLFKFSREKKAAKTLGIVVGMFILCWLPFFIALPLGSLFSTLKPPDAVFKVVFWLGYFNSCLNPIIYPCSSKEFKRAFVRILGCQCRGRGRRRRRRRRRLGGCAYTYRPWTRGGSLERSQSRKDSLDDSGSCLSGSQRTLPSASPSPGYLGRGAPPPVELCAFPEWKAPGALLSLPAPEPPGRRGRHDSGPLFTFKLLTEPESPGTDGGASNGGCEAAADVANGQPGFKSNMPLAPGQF

[13] = biological target: Alpha-2C adrenergic receptor (Homo sapiens, UniProt P18825); assay: Displacement of [3H]rauwolscine from human recombinant adrenergic alpha2C receptor expressed in MDCK cell membranes by radioligand binding assay
Sequence of Alpha-2C adrenergic receptor (P18825 whole entry): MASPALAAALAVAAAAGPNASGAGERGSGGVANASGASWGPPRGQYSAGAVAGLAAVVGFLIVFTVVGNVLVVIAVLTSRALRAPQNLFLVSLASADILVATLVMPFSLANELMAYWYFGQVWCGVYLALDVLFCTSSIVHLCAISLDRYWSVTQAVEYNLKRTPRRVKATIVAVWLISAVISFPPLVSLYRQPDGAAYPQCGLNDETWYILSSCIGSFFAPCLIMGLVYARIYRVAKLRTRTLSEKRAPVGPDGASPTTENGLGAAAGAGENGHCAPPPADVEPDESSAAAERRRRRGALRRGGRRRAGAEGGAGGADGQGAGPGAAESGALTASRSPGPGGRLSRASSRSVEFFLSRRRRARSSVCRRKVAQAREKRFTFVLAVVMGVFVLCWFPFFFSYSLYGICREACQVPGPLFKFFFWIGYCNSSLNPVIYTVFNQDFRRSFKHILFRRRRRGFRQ

[14] = biological target: Beta-2 adrenergic receptor (Homo sapiens, UniProt P07550); assay: Displacement of [3H]CGP12177 from human recombinant adrenergic beta2 receptor expressed in CHO Flp-In cell membranes by radioligand binding assay
[15] = biological target: D(3) dopamine receptor (Homo sapiens, UniProt P35462); assay: Displacement of [3H]N-methylspiperone from human recombinant dopamine D3 receptor expressed in HEKT cell membranes by radioligand binding assay
[16] = biological target: Sodium-dependent dopamine transporter (Homo sapiens, UniProt Q01959); assay: Displacement of [3H]WIN35428 from human recombinant DAT expressed in HEK cell membranes by radioligand binding assay; parameters: species or system HEK293
Sequence of Sodium-dependent dopamine transporter (Q01959 whole entry): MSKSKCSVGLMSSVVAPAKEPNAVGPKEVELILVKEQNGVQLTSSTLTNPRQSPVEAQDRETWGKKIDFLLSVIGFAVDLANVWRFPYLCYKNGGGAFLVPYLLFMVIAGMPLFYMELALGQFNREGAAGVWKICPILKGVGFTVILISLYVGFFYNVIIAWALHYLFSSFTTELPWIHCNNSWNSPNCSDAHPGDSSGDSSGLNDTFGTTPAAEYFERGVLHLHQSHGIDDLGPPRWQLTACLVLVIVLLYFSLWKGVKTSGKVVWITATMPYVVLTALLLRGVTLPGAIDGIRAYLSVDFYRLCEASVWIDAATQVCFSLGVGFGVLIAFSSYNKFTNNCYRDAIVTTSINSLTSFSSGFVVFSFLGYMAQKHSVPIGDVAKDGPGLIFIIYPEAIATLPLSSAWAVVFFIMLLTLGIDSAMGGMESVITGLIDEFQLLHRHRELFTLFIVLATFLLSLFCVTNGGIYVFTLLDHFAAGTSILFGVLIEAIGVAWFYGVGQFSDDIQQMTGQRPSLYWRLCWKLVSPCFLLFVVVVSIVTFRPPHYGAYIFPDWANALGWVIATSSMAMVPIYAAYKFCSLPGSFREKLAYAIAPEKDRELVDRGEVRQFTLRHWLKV

[17] = biological target: Sodium-dependent noradrenaline transporter (Homo sapiens, UniProt P23975); assay: Displacement of [3H]nisoxetine from human recombinant NET expressed in HEK cell membranes by radioligand binding assay; parameters: species or system HEK293
[18] = biological target: Sodium-dependent serotonin transporter (Homo sapiens, UniProt P31645); assay: Displacement of [3H]citalopram from human recombinant SERT expressed in HEK cell membranes by radioligand binding assay; parameters: species or system HEK293
Sequence of Sodium-dependent serotonin transporter (P31645 whole entry): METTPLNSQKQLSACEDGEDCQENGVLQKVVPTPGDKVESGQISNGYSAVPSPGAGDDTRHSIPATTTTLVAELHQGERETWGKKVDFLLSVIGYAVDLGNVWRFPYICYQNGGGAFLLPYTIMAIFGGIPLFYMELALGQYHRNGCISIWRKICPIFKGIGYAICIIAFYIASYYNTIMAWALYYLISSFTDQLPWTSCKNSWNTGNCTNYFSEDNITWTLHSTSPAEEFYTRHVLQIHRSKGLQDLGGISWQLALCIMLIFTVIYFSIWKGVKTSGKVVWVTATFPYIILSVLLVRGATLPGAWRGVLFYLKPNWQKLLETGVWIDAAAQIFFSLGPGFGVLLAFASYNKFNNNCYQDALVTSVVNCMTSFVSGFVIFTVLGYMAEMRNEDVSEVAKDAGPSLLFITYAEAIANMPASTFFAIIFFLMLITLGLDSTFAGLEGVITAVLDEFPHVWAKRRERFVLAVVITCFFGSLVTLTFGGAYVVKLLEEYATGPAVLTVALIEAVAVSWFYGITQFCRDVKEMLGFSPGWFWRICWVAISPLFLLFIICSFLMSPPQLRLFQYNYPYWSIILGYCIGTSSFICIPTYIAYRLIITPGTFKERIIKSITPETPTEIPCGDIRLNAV

[19] = biological target: 5-hydroxytryptamine receptor 1E (Homo sapiens) (UniProt P28566); assay: Displacement of [3H]5-HT from human recombinant 5-HT1E receptor expressed in HEK cell membranes by radioligand binding assay; conditions: HEK293, concentration not given here
[20] = biological target: D(1A) dopamine receptor (Homo sapiens, UniProt P21728); assay: Displacement of [3H]SCH23390 from human recombinant dopamine D1 receptor expressed in HEKT cell membranes by radioligand binding assay
[21] = biological target: 5-hydroxytryptamine receptor 6 (Homo sapiens, UniProt P50406); assay: Displacement of [3H]LSD from human recombinant 5-HT6 receptor expressed in HEK cell membranes by radioligand binding assay; parameters: species or system HEK293
[22] = biological target: 5-hydroxytryptamine receptor 5A (Homo sapiens, UniProt P47898); assay: Displacement of [3H]LSD from human recombinant 5-HT5A receptor expressed in Flp-In CHO cell membranes by radioligand binding assay
[23] = biological target: 5-hydroxytryptamine receptor 2B (Homo sapiens, UniProt P41595); assay: Displacement of [3H]LSD from human recombinant 5-HT2B receptor expressed in HEK cell membranes by radioligand binding assay; parameters: species or system HEK293
Sequence of 5-hydroxytryptamine receptor 2B (P41595 whole entry): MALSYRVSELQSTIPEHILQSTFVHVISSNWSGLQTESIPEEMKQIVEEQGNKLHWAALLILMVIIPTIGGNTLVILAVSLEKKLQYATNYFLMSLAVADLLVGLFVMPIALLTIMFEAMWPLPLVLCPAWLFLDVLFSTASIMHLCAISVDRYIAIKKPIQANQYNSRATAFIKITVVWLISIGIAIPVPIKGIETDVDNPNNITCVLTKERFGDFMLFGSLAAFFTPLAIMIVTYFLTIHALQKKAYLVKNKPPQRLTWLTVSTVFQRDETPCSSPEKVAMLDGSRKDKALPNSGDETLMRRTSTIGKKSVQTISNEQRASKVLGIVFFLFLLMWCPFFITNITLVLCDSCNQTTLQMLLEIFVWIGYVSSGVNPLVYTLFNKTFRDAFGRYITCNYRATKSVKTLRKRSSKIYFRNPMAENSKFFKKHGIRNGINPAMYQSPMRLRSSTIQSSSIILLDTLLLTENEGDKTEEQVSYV

[24] = biological target: 5-hydroxytryptamine receptor 3A (Homo sapiens) (UniProt P46098); assay: Displacement of [3H]GR65630 from human recombinant 5-HT3 receptor expressed in HEKT cell membranes by radioligand binding assay; conditions: concentration not given here
Sequence of 5-hydroxytryptamine receptor 3A (Homo sapiens) (P46098 whole entry): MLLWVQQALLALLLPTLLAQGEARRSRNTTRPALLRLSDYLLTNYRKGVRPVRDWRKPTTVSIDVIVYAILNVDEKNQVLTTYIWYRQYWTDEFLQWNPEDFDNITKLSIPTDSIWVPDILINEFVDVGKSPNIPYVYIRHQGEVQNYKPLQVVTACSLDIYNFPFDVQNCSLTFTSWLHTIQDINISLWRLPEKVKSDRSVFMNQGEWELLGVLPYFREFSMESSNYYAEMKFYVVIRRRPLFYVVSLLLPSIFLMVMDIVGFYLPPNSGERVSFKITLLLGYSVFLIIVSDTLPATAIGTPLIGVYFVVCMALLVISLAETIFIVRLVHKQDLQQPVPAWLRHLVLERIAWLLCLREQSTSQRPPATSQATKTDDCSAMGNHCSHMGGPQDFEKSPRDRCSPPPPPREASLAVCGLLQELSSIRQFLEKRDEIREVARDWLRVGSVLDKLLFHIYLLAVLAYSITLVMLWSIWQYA

[25] = biological target: Alpha-1A adrenergic receptor (Homo sapiens) (UniProt P35348); assay: Displacement of [3H]prazosin from human recombinant adrenergic alpha1A receptor by radioligand binding assay; conditions: concentration not given here
[26] = biological target: Alpha-1D adrenergic receptor (Homo sapiens) (UniProt P25100); assay: Displacement of [3H]prazosin from human recombinant adrenergic alpha1D receptor by radioligand binding assay; conditions: concentration not given here
[27] = biological target: Alpha-2B adrenergic receptor (Homo sapiens) (UniProt P18089); assay: Displacement of [3H]rauwolscine from human recombinant adrenergic alpha2B receptor expressed in HEKT cell membranes by radioligand binding assay; conditions: concentration not given here
[28] = species: Rattus norvegicus; assay: Displacement of [3H]flunitrazepam from rat brain benzodiazepine receptor by radioligand binding assay; conditions: concentration not given here
[29] = biological target: D(2) dopamine receptor (Homo sapiens) (UniProt P14416); assay: Displacement of [3H]N-methylspiperone from human recombinant dopamine D2 receptor expressed in fibroblasts cell membranes by radioligand binding assay; conditions: Fibroblast, concentration not given here
[30] = biological target: D(4) dopamine receptor (Homo sapiens) (UniProt P21917); assay: Displacement of [3H]N-methylspiperone from human recombinant dopamine D4 receptor by radioligand binding assay; conditions: concentration not given here
[31] = biological target: D(1B) dopamine receptor (Homo sapiens) (UniProt P21918); assay: Displacement of [3H]SCH23390 from human recombinant dopamine D5 receptor expressed in HEKT cell membranes by radioligand binding assay; conditions: concentration not given here
Sequence of D(1B) dopamine receptor (Homo sapiens) (P21918 whole entry): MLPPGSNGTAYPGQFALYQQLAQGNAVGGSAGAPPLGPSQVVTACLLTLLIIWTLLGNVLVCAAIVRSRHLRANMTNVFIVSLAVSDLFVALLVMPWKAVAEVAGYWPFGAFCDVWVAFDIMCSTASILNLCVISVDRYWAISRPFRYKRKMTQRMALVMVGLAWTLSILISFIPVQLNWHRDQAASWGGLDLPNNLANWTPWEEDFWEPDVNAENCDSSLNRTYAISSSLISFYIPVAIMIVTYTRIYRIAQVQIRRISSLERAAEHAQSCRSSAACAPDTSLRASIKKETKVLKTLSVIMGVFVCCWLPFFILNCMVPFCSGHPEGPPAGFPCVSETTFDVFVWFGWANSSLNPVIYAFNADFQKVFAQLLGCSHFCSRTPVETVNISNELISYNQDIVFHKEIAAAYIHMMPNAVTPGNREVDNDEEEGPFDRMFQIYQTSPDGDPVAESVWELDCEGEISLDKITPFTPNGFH

[32] = biological target: Delta-type opioid receptor (Homo sapiens) (UniProt P41143); assay: Displacement of [3H]DADLE from human recombinant DOR expressed in HEK cell membranes by radioligand binding assay; conditions: HEK293, concentration not given here
[33] = species: Rattus norvegicus; assay: Displacement of [3H]muscimol from rat brain GABAA receptor by radioligand binding assay; conditions: concentration not given here
[34] = biological target: Histamine H1 receptor (Homo sapiens) (UniProt P35367); assay: Displacement of [3H]pyrilamine from human recombinant histamine H1 receptor expressed in HEK cell membranes by radioligand binding assay; conditions: HEK293, concentration not given here
[35] = biological target: Histamine H3 receptor (Homo sapiens) (UniProt Q9Y5N1); assay: Displacement of [3H]alpha-methylhistamine from human recombinant histamine H3 receptor expressed in HEKFlp-In cell membranes by radioligand binding assay; conditions: concentration not given here
[36] = biological target: Histamine H4 receptor (Homo sapiens) (UniProt Q9H3N8); assay: Displacement of [3H]histamine from human recombinant histamine H4 receptor by radioligand binding assay; conditions: concentration not given here
[37] = biological target: Kappa-type opioid receptor (Homo sapiens) (UniProt P41145); assay: Displacement of [3H]U69593 from human recombinant KOR expressed in HEK cell membranes by radioligand binding assay; conditions: HEK293, concentration not given here
[38] = biological target: Muscarinic acetylcholine receptor M1 (Homo sapiens) (UniProt P11229); assay: Displacement of [3H]QNB/[3H]]NMS from human recombinant muscarinic M1 receptor expressed in CHO cell membranes by radioligand binding assay; conditions: concentration not given here
[39] = biological target: Muscarinic acetylcholine receptor M2 (Homo sapiens) (UniProt P08172); assay: Displacement of [3H]QNB/[3H]]NMS from human recombinant muscarinic M2 receptor expressed in CHO cell membranes by radioligand binding assay; conditions: concentration not given here
[40] = biological target: Muscarinic acetylcholine receptor M3 (Homo sapiens) (UniProt P20309); assay: Displacement of [3H]QNB/[3H]]NMS from human recombinant muscarinic M3 receptor expressed in CHO cell membranes by radioligand binding assay; conditions: concentration not given here
[41] = biological target: Muscarinic acetylcholine receptor M4 (Homo sapiens) (UniProt P08173); assay: Displacement of [3H]QNB/[3H]]NMS from human recombinant muscarinic M4 receptor expressed in CHO cell membranes by radioligand binding assay; conditions: concentration not given here
[42] = biological target: Muscarinic acetylcholine receptor M5 (Homo sapiens) (UniProt P08912); assay: Displacement of [3H]QNB/[3H]]NMS from human recombinant muscarinic M5 receptor expressed in CHO cell membranes by radioligand binding assay; conditions: concentration not given here

SMILES: CCOc1cc2c(cc1OC)-c1c(OC)c(OC)cc3c1[C@H](C2)N(C)CC3
- Ratio Ki [1]: 7
- Ratio Ki [2]: 12
- pKi [3]: 7.16
- pKi [4]: 6.30
- pKi [5]: 6.09

SMILES: COc1cc2c(cc1OC)-c1c(OC)c(OC)cc3c1[C@H](C2)N(C)CC3 [GLAUCINE]
- Ratio Ki [1]: 4
- Ratio Ki [2]: 22
- pKi [3]: 7.37
- pKi [4]: 6.77
- pKi [5]: 6.02

- Ratio Ki [1]: 3
- Ratio Ki [2]: 11
- Ratio Ki [6]: < 3
- pKi [3]: 7.30
- pKi [4]: 6.79
- pKi [5]: 6.24
SMILES: COc1cc2c(cc1OC1CCCCC1)C[C@H]1c3c(cc(OC)c(OC)c3-2)CCN1C

SMILES: COc1cc2c(cc1OCCF)C[C@H]1c3c(cc(OC)c(OC)c3-2)CCN1C
- Ratio Ki [1]: 16
- Ratio Ki [2]: 22
- pKi [3]: 7.28
- pKi [4]: 6.07
- pKi [5]: 5.94

SMILES: CCCCCOc1cc2c(cc1OC)-c1c(OC)c(OC)cc3c1[C@H](C2)N(C)CC3
- Ratio Ki [1]: 7
- Ratio Ki [2]: 10
- pKi [3]: 7.62
- pKi [4]: 6.75
- pKi [5]: 6.62

SMILES: COc1cc2c(cc1OCC1CC1)C[C@H]1c3c(cc(OC)c(OC)c3-2)CCN1C
- Ratio Ki [1]: 10
- pKi [3]: 7.66
- pKi [4]: 6.65
- pKi [5]: 6.24

SMILES: CCCC(C)Oc1cc2c(cc1OC)-c1c(OC)c(OC)cc3c1[C@H](C2)N(C)CC3 (stereo not given in full)
- Ratio Ki [1]: 5
- Ratio Ki [2]: 5
- Ratio Ki [6]: < 3
- pKi [3]: 7.62
- pKi [4]: 6.93
- pKi [5]: 6.61

SMILES: COc1cc2c(cc1O)C[C@H]1c3c(cc(OC)c(OC)c3-2)CCN1C
- inhibition [7]: < 50%
- inhibition [8]: < 50%
- inhibition [9]: < 50%
- inhibition [10]: < 50%
- pKi [11]: < 6.02
- pKi [12]: < 6.02
- pKi [13]: < 6.02
- pKi [14]: < 6.02
- pKi [15]: < 6.02
- pKi [16]: < 6.02
- pKi [17]: < 6.02
- pKi [18]: < 6.02
- Ratio Ki [1]: 16
- inhibition [19]: < 50%
- pKi [20]: 6.43
- pKi [3]: 7.70
- pKi [21]: 6.51
- pKi [22]: 6.25
- pKi [23]: 6.49
- pKi [4]: 6.50
- inhibition [24]: < 50%
- inhibition [25]: < 50%
- inhibition [26]: < 50%
- inhibition [27]: < 50%
- inhibition [28]: < 50%
- inhibition [29]: < 50%
- inhibition [30]: < 50%
- inhibition [31]: < 50%
- inhibition [32]: < 50%
- inhibition [33]: < 50%
- inhibition [34]: < 50%
- inhibition [35]: < 50%
- inhibition [36]: < 50%
- inhibition [37]: < 50%
- inhibition [38]: < 50%
- inhibition [39]: < 50%
- inhibition [40]: < 50%
- inhibition [41]: < 50%
- inhibition [42]: < 50%

Source: ChEMBL document CHEMBL3580564, “Semisynthetic Studies on and Biological Evaluation of N-Methyllaurotetanine Analogues as Ligands for 5-HT Receptors” (J Nat Prod, 2015)
